The source of these data is PMC5218480 (PLoS ONE, 2017).

The test concerns MV-4-11 cells. Briefly: Gene expression microarray analysis (Affymetrix PrimeView) and GSEA. The test is classed as cell-based, human. Set-up: RFU PODN (11730768_x_at) / Fold change /veh PODN (11730768_x_at) / RFU LINC00158 (11744669_a_at) / Fold change /veh LINC00158 (11744669_a_at) / RFU DUSP10 (11751237_a_at) / Fold change /veh DUSP10 (11751237_a_at) / RFU ID3 (11757404_x_at) / Fold change /veh ID3 (11757404_x_at) / RFU PLEKHG5 (11737974_s_at) / Fold change /veh PLEKHG5 (11737974_s_at) / RFU LRRC4B (11730491_at) / Fold change /veh LRRC4B (11730491_at) / RFU GIMAP4 (11747438_a_at) / Fold change /veh GIMAP4 (11747438_a_at) / RFU KRT8 (11758183_x_at) / Fold change /veh KRT8 (11758183_x_at) / RFU CNN1 (11734310_a_at) / Fold change /veh CNN1 (11734310_a_at) / RFU VPS37D (11726825_at) / Fold change /veh VPS37D (11726825_at) / RFU C10orf10 (11716522_x_at) / Fold change /veh C10orf10 (11716522_x_at) / RFU KIR2DL2 /// KIR2DL4 /// KIR2DL5A /// KIR2DL5B /// KIR2DS1 /// KIR2DS2 /// KIR2DS3 /// KIR2DS4 /// KIR3DL3 /// KIR3DL3 /// KIR3DS1 (11738374_at) / Fold change /veh KIR2DL2 /// KIR2DL4 /// KIR2DL5A /// KIR2DL5B /// KIR2DS1 /// KIR2DS2 /// KIR2DS3 /// KIR2DS4 /// KIR3DL3 /// KIR3DL3 /// KIR3DS1 (11738374_at) / RFU C1QL1 (11718748_at) / Fold change /veh C1QL1 (11718748_at) / RFU TMPRSS4 (11747572_a_at) / Fold change /veh TMPRSS4 (11747572_a_at) / RFU HAMP (11756126_x_at) / Fold change /veh HAMP (11756126_x_at) / RFU RNFT2 (11725882_a_at) / Fold change /veh RNFT2 (11725882_a_at) / RFU NR4A2 (11747474_a_at) / Fold change /veh NR4A2 (11747474_a_at) / RFU ABCC12 (11746883_a_at) / Fold change /veh ABCC12 (11746883_a_at) / RFU TMEM136 (11760407_x_at) / Fold change /veh TMEM136 (11760407_x_at) / RFU CLDN22 /// WWC2 (11732394_at) / Fold change /veh CLDN22 /// WWC2 (11732394_at) / RFU HLA-DPB1 (11760878_x_at) / Fold change /veh HLA-DPB1 (11760878_x_at) / RFU SPINT1 (11716480_a_at) / Fold change /veh SPINT1 (11716480_a_at) / RFU GAP43 (11754022_s_at) / Fold change /veh GAP43 (11754022_s_at) / RFU A4GNT (11735810_at) / Fold change /veh A4GNT (11735810_at) / RFU PRB3 (11715151_x_at) / Fold change /veh PRB3 (11715151_x_at) / RFU TUBB4B (11761932_at) / Fold change /veh TUBB4B (11761932_at) / RFU CAPN14 (11732068_a_at) / Fold change /veh CAPN14 (11732068_a_at) / RFU TMCC2 (11721928_a_at) / Fold change /veh TMCC2 (11721928_a_at) / RFU IRGQ (11745062_a_at) / Fold change /veh IRGQ (11745062_a_at) / RFU FAM174B (11720279_a_at) / Fold change /veh FAM174B (11720279_a_at) / RFU TMPRSS4 (11748680_a_at) / Fold change /veh TMPRSS4 (11748680_a_at) / RFU FAM212B (11763350_a_at) / Fold change /veh FAM212B (11763350_a_at) / RFU PLEKHG5 (11743358_a_at) / Fold change /veh PLEKHG5 (11743358_a_at) / RFU ZSCAN30 (11745921_a_at) / Fold change /veh ZSCAN30 (11745921_a_at) / RFU CMKLR1 (11741424_a_at) / Fold change /veh CMKLR1 (11741424_a_at) / RFU LOC101060620 /// MAPK8IP1 (11723275_at) / Fold change /veh LOC101060620 /// MAPK8IP1 (11723275_at) / RFU SPTSSB (11747773_x_at) / Fold change /veh SPTSSB (11747773_x_at) / RFU PRSS12 (11739890_at) / Fold change /veh PRSS12 (11739890_at) / RFU BIN1 (11741810_x_at) / Fold change /veh BIN1 (11741810_x_at) / RFU WNT11 (11732464_a_at) / Fold change /veh WNT11 (11732464_a_at) / RFU C10orf10 (11716521_a_at) / Fold change /veh C10orf10 (11716521_a_at) / RFU C5orf56 (11738089_at) / Fold change /veh C5orf56 (11738089_at) / RFU CYB561 (11721691_x_at) / Fold change /veh CYB561 (11721691_x_at) / RFU ANKRD19P (11752326_a_at) / Fold change /veh ANKRD19P (11752326_a_at) / RFU OR2T12 /// OR2T33 /// OR2T8 (11738714_s_at) / Fold change /veh OR2T12 /// OR2T33 /// OR2T8 (11738714_s_at) / RFU VCAN (11748164_a_at) / Fold change /veh VCAN (11748164_a_at) / RFU JSRP1 (11732532_at) / Fold change /veh JSRP1 (11732532_at) / RFU KRTAP10-11 (11738290_x_at) / Fold change /veh KRTAP10-11 (11738290_x_at) / RFU MYO3A (11730013_a_at) / Fold change /veh MYO3A (11730013_a_at) / RFU EBF3 (11725865_a_at) / Fold change /veh EBF3 (11725865_a_at) / RFU CAMK2N1 (11719241_x_at) / Fold change /veh CAMK2N1 (11719241_x_at) / RFU C5orf56 (11738088_a_at) / Fold change /veh C5orf56 (11738088_a_at) / RFU OLFML3 (11715873_a_at) / Fold change /veh OLFML3 (11715873_a_at) / RFU LOC100653217 /// NTM (11731650_a_at) / Fold change /veh LOC100653217 /// NTM (11731650_a_at) / RFU MAPK11 (11762145_a_at) / Fold change /veh MAPK11 (11762145_a_at) / RFU FIZ1 (11724087_x_at) / Fold change /veh FIZ1 (11724087_x_at) / RFU OASL (11726364_x_at) / Fold change /veh OASL (11726364_x_at) / RFU SOX15 (11748057_x_at) / Fold change /veh SOX15 (11748057_x_at) / RFU CD79A (11719716_a_at) / Fold change /veh CD79A (11719716_a_at) / RFU HIST1H1D (11736915_at) / Fold change /veh HIST1H1D (11736915_at) / RFU CASKIN2 (11723855_a_at) / Fold change /veh CASKIN2 (11723855_a_at) / RFU LOC730098 (11760151_x_at) / Fold change /veh LOC730098 (11760151_x_at) / RFU OR4N2 (11742367_at) / Fold change /veh OR4N2 (11742367_at) / RFU PRRT2 (11749266_a_at) / Fold change /veh PRRT2 (11749266_a_at) / RFU SNX32 (11753110_a_at) / Fold change /veh SNX32 (11753110_a_at) / RFU CDHR5 (11726645_a_at) / Fold change /veh CDHR5 (11726645_a_at) / RFU RCAN1 (11760418_a_at) / Fold change /veh RCAN1 (11760418_a_at) / RFU FAM167A (11723789_a_at) / Fold change /veh FAM167A (11723789_a_at) / RFU FAM26E (11764081_at) / Fold change /veh FAM26E (11764081_at) / RFU ISYNA1 (11749810_s_at) / Fold change /veh ISYNA1 (11749810_s_at) / RFU ACY1 (11761880_at) / Fold change /veh ACY1 (11761880_at) / RFU 11764098_at / Fold change /veh 11764098_at / RFU SAMD14 (11745864_x_at) / Fold change /veh SAMD14 (11745864_x_at) / RFU NPB (11741838_a_at) / Fold change /veh NPB (11741838_a_at) / RFU TMPRSS6 (11731388_a_at) / Fold change /veh TMPRSS6 (11731388_a_at) / RFU KRTAP10-2 (11738614_at) / Fold change /veh KRTAP10-2 (11738614_at) / RFU ARHGAP8 /// PRR5-ARHGAP8 (11727945_x_at) / Fold change /veh ARHGAP8 /// PRR5-ARHGAP8 (11727945_x_at) / RFU KRTAP5-7 /// NADSYN1 (11734609_at) / Fold change /veh KRTAP5-7 /// NADSYN1 (11734609_at) / RFU RASL12 (11751679_a_at) / Fold change /veh RASL12 (11751679_a_at) / RFU CDKN2B (11736163_a_at) / Fold change /veh CDKN2B (11736163_a_at) / RFU PRF1 (11729649_at) / Fold change /veh PRF1 (11729649_at) / RFU, ZNF638 /// ZNF638-IT1 / Fold change vs veh, ZNF638 /// ZNF638-IT1 / RFU, PANK3 / Fold change vs veh, PANK3 / RFU, SH3YL1 / Fold change vs veh, SH3YL1 / RFU, ZEB2 / Fold change vs veh, ZEB2 / RFU, NRIP1 / Fold change vs veh, NRIP1 / RFU, PTTG1IP / Fold change vs veh, PTTG1IP / RFU, CAPN2 / Fold change vs veh, CAPN2 / RFU, MED14 / Fold change vs veh, MED14 / RFU, SNORA58 / Fold change vs veh, SNORA58 / RFU, C1orf63 / Fold change vs veh, C1orf63 / RFU, LRRFIP1 / Fold change vs veh, LRRFIP1 / RFU, NDUFAF7 / Fold change vs veh, NDUFAF7 / RFU, SLC12A2 / Fold change vs veh, SLC12A2 / RFU, IBTK / Fold change vs veh, IBTK / RFU, ESF1 / Fold change vs veh, ESF1 / Fold change vs veh, TMEM50B / RFU, TAOK1 / Fold change vs veh, TAOK1 / RFU, ACBD3 / Fold change vs veh, ACBD3 / RFU, TMA16 / Fold change vs veh, TMA16 / RFU, RWDD3 / Fold change vs veh, RWDD3 / RFU, BCAT1 / Fold change vs veh, BCAT1 / RFU, EDEM3 / Fold change vs veh, EDEM3 / RFU, TMEM33 / Fold change vs veh, TMEM33 / RFU, WDR75 / Fold change vs veh, WDR75 / RFU, AHCTF1 / Fold change vs veh, AHCTF1 / RFU, TFRC / Fold change vs veh, TFRC / RFU, ZDHHC17 / Fold change vs veh, ZDHHC17 / RFU, NOM1 / Fold change vs veh, NOM1 / RFU, ARL8B / Fold change vs veh, ARL8B / RFU, ZBTB11 / Fold change vs veh, ZBTB11 / RFU, TAMM41 / Fold change vs veh, TAMM41 / RFU, KIAA1704 /// LOC100996395 / Fold change vs veh, KIAA1704 /// LOC100996395 / RFU, ING1 / Fold change vs veh, ING1 / RFU, TRMT61B / Fold change vs veh, TRMT61B / RFU, FUBP3 / Fold change vs veh, FUBP3 / RFU, TP53 / Fold change vs veh, TP53 / RFU, TNKS2 / Fold change vs veh, TNKS2 / RFU, ZFP14 / Fold change vs veh, ZFP14 / RFU, ACTR2 / Fold change vs veh, ACTR2 / RFU, PPP3R1 / Fold change vs veh, PPP3R1 / RFU, PIK3R1 / Fold change vs veh, PIK3R1 / RFU, HNRNPA1 / Fold change vs veh, HNRNPA1 / RFU, RNF170 / Fold change vs veh, RNF170 / RFU, ZNF28 / Fold change vs veh, ZNF28 / RFU, RNGTT / Fold change vs veh, RNGTT / RFU, OGT / Fold change vs veh, OGT / RFU, BRD1 / Fold change vs veh, BRD1 / RFU, MARS / Fold change vs veh, MARS / RFU, ZNF655 / Fold change vs veh, ZNF655 / RFU, FAHD1 / Fold change vs veh, FAHD1 / RFU, BDP1 / Fold change vs veh, BDP1 / RFU, LRRCC1 / Fold change vs veh, LRRCC1 / RFU, ARID1A / Fold change vs veh, ARID1A / RFU, ZNF146 / Fold change vs veh, ZNF146 / RFU, ZNF330 / Fold change vs veh, ZNF330 / RFU, GPN3 / Fold change vs veh, GPN3 / RFU, C9orf123 / Fold change vs veh, C9orf123 / RFU, N4BP2L2 / Fold change vs veh, N4BP2L2 / RFU, ARFIP1 / Fold change vs veh, ARFIP1 / RFU, FAM179B / Fold change vs veh, FAM179B / RFU, BCL10 / Fold change vs veh, BCL10 / RFU, UHRF1BP1L / Fold change vs veh, UHRF1BP1L / RFU, BET1 / Fold change vs veh, BET1 / RFU, CNOT2 / Fold change vs veh, CNOT2 / RFU, ZNF268 / Fold change vs veh, ZNF268 / Fold change vs veh, ZNF507 / RFU, DGCR2 / Fold change vs veh, DGCR2 / RFU, WDSUB1 / Fold change vs veh, WDSUB1 / Fold change vs veh, HSP90B1 /// MIR3652 / RFU, ADSS / Fold change vs veh, ADSS / RFU, GK / Fold change vs veh, GK / RFU, ZNF148 / Fold change vs veh, ZNF148 / RFU, TAF9 / Fold change vs veh, TAF9 / RFU, SLC1A5 / Fold change vs veh, SLC1A5 / RFU, SLMO2 / Fold change vs veh, SLMO2 / RFU, ABCC4 / Fold change vs veh, ABCC4 / RFU, LOC101060439 /// RAP1B / Fold change vs veh, LOC101060439 /// RAP1B / RFU, RFX7 / Fold change vs veh, RFX7 / RFU, GTPBP10 / Fold change vs veh, GTPBP10 / RFU, CNEP1R1 / Fold change vs veh, CNEP1R1 / RFU, BIVM-ERCC5 /// ERCC5 / Fold change vs veh, BIVM-ERCC5 /// ERCC5 / RFU, ILF3 / Fold change vs veh, ILF3 / RFU 11762660_at / Fold change /veh 11762660_at / RFU VCAN (11757783_s_at) / Fold change /veh VCAN (11757783_s_at) / RFU DDX43 (11728927_at) / Fold change /veh DDX43 (11728927_at) / RFU KRT8 (11758188_x_at) / Fold change /veh KRT8 (11758188_x_at) / RFU NKD1 (11759106_at) / Fold change /veh NKD1 (11759106_at) / RFU SRD5A1 (11742802_a_at) / Fold change /veh SRD5A1 (11742802_a_at) / RFU TPSAB1 /// TPSB2 (11721975_s_at) / Fold change /veh TPSAB1 /// TPSB2 (11721975_s_at) / RFU GSTM3 (11746129_a_at) / Fold change /veh GSTM3 (11746129_a_at) / RFU IL23R (11737362_x_at) / Fold change /veh IL23R (11737362_x_at) / RFU TMEM51 (11727254_a_at) / Fold change /veh TMEM51 (11727254_a_at) / RFU PIWIL2 (11732686_x_at) / Fold change /veh PIWIL2 (11732686_x_at) / RFU ORM1 (11744905_x_at) / Fold change /veh ORM1 (11744905_x_at) / RFU CCDC152 (11743942_at) / Fold change /veh CCDC152 (11743942_at) / RFU ECM1 (11717891_a_at) / Fold change /veh ECM1 (11717891_a_at) / RFU IL23R (11748794_a_at) / Fold change /veh IL23R (11748794_a_at) / RFU TNFAIP8L3 (11732012_x_at) / Fold change /veh TNFAIP8L3 (11732012_x_at) / RFU MBOAT4 (11741988_at) / Fold change /veh MBOAT4 (11741988_at) / RFU 11764193_at / Fold change /veh 11764193_at / RFU TMEM53 (11763286_at) / Fold change /veh TMEM53 (11763286_at) / RFU MAGEB2 (11727129_at) / Fold change /veh MAGEB2 (11727129_at) / RFU TMEM200A (11744735_a_at) / Fold change /veh TMEM200A (11744735_a_at) / RFU CCDC152 (11751479_a_at) / Fold change /veh CCDC152 (11751479_a_at) / RFU FAM211A (11726209_a_at) / Fold change /veh FAM211A (11726209_a_at) / RFU RGS16 (11746705_a_at) / Fold change /veh RGS16 (11746705_a_at) / RFU VCAN (11755009_s_at) / Fold change /veh VCAN (11755009_s_at) / RFU RHOB (11743442_s_at) / Fold change /veh RHOB (11743442_s_at) / RFU RGS16 (11720943_a_at) / Fold change /veh RGS16 (11720943_a_at) / RFU RGS16 (11720944_at) / Fold change /veh RGS16 (11720944_at) / RFU, VPS4B / Fold change vs veh, VPS4B / RFU, CREB1 / Fold change vs veh, CREB1 / RFU, DNAJC13 / Fold change vs veh, DNAJC13 / RFU, GNAQ / Fold change vs veh, GNAQ / RFU, CDK5R1 / Fold change vs veh, CDK5R1 / RFU, ZRANB3 / Fold change vs veh, ZRANB3 / RFU, CUL4A / Fold change vs veh, CUL4A / RFU, CCNY / Fold change vs veh, CCNY / RFU, UFL1 / Fold change vs veh, UFL1 / RFU, COG3 / Fold change vs veh, COG3 / RFU, DIAPH2 / Fold change vs veh, DIAPH2 / RFU, SKA2 / Fold change vs veh, SKA2 / RFU, AFF3 / Fold change vs veh, AFF3 / RFU, LMF1 / Fold change vs veh, LMF1 / RFU, IPO11 / Fold change vs veh, IPO11 / RFU, DFFB / Fold change vs veh, DFFB / RFU, FOXP1 / Fold change vs veh, FOXP1 / RFU, CARD8 / Fold change vs veh, CARD8 / RFU, STRN3 / Fold change vs veh, STRN3 / RFU, ADK / Fold change vs veh, ADK / RFU, RASSF2 / Fold change vs veh, RASSF2 / RFU, WIPF1 / Fold change vs veh, WIPF1 / RFU, LARP1B / Fold change vs veh, LARP1B / RFU, RASA1 / Fold change vs veh, RASA1 / RFU, RB1 / Fold change vs veh, RB1 / RFU, PPFIA1 / Fold change vs veh, PPFIA1 / RFU, MAT2A / Fold change vs veh, MAT2A / RFU, CCT5 / Fold change vs veh, CCT5 / RFU, WDR92 / Fold change vs veh, WDR92 / RFU, CUX1 / Fold change vs veh, CUX1 / RFU, TTC7A / Fold change vs veh, TTC7A / RFU, TMEM135 / Fold change vs veh, TMEM135 / RFU, DEPTOR / Fold change vs veh, DEPTOR / RFU, CPM / Fold change vs veh, CPM / RFU, DNAJB6 / Fold change vs veh, DNAJB6 / RFU, CACNA2D3 / Fold change vs veh, CACNA2D3 / RFU, DTX4 / Fold change vs veh, DTX4 / RFU, TFCP2 / Fold change vs veh, TFCP2 / RFU, GMCL1 /// GMCL1P1 / Fold change vs veh, GMCL1 /// GMCL1P1 / RFU, AEBP2 / Fold change vs veh, AEBP2 / RFU, SNHG1 /// SNORD22 /// SNORD25 /// SNORD26 /// SNORD27 /// SNORD28 /// SNORD29 /// SNORD31 / Fold change vs veh, SNHG1 /// SNORD22 /// SNORD25 /// SNORD26 /// SNORD27 /// SNORD28 /// SNORD29 /// SNORD31 / Fold change (Aza/veh), C12orf56 (ProbeSet 11735607_a_at) / Fold change (ACY-1035/veh), C12orf56 (ProbeSet 11735607_a_at) / Fold change (Aza/veh), FGFR1OP (ProbeSet 11751329_s_at) / Fold change (ACY-1035/veh), FGFR1OP (ProbeSet 11751329_s_at) / Fold change (Aza/veh), VPS36 (ProbeSet 11739960_a_at) / Fold change (ACY-1035/veh), VPS36 (ProbeSet 11739960_a_at) / RFU SYPL1 (11715823_x_at) / Fold change /veh SYPL1 (11715823_x_at) / RFU IGFBP7 (11715501_s_at) / Fold change /veh IGFBP7 (11715501_s_at) / RFU REEP3 (11722064_at) / Fold change /veh REEP3 (11722064_at) / RFU IGLL1 (11728026_x_at) / Fold change /veh IGLL1 (11728026_x_at): dose or concentration left out as unconfirmed. The settings on record: ProbeSet 11731583_a_at; LIST D.

Structures are written as SMILES.

For `Nc1ncn([C@@H]2O[C@H](CO)[C@@H](O)[C@H]2O)c(=O)n1` [azacitidine], the “RFU, LARP1B” value turned out to be 75.03 RFU.
